Source: publication PMC8151276, “An Integrated Approach toward NanoBRET Tracers for Analysis of GPCR Ligand Engagement” (Molecules, 2021)

Biological target: T1, GALR2 (Homo sapiens, UniProt O43603)
T1 construct: purchased Promega (in-house HiBiT-GPCR construct library, NanoBRET)
T1 sequence (O43603 1-387): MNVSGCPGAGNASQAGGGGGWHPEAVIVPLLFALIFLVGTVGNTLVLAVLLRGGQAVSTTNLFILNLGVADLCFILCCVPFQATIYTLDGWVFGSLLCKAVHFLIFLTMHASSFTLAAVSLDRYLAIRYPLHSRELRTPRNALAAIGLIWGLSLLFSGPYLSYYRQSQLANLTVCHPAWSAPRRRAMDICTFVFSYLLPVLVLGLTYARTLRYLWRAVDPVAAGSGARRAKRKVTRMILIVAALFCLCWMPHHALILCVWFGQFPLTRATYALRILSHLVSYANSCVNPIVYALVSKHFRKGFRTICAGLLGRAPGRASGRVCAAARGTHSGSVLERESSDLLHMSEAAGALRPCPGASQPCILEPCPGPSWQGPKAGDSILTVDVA
Experiment: NanoBRET screen HiBiT-GALR2 in HEK293
Type: binding
Description: Each tracer candidate was screened across the entire library of HiBiT-GPCR constructs using NanoBRET as the detection modality. As depicted in Figure 4A, the specificity of interactions was evaluated through decrease in BRET due to competitive displacement of a bound tracer by excess parental compound. Each tracer was analyzed for binding to each HiBiT-GPCR fusion in the absence and in the presence of competing parental compound. Briefly, HEK293 cells were transfected with HiBiT-GPCR constructs diluted into promoterless DNA to reduce expression and maximize translocation to the cell surface. Each tracer candidate was then screened at concentrations of 1 μM and 0.1 μM across cells expressing these fusions. Cells were treated for 1.5 h with tracer either alone or in the presence of 20 μM competing parental compound (i.e., control). BRET was measured upon addition of purified LgBiT and subsequent complementation with HiBiT genetically fused to a GPCR. The specificity of interactions was assessed through a decrease in BRET signal due to competitive displacement of the bound tracer. To further gauge the robustness of these interactions, the fold response over the control (i.e., BRETtracer/BRETcontrol) was calculated. We chose a 1.5-fold response, which translates to ≥7-fold signal over noise as the minimal threshold required to score an interaction as positive. […]. Below we highlight the screening results obtained for our exemplary fluorescent tracers based on Clozapine, Amitriptyline and AZD1283.
HiBiT-GPCR DNA constructs were diluted in 10 mM Tris pH 8 to a final concentration of 0.01 μg/μL, arrayed in 96-well plates and stored at −20 °C. For transfection, HEK293 cells were suspended in Opti-MEM (without phenol red) supplemented with 2% fetal bovine serum (Seradigm) and 100 units/mL penicillin–streptomycin (Gibco) at a final concentration of 220,000 cells/mL and dispensed into white 96-well plates at 90 μL/well. Subsequent transfections and screens were carried using an Agilent Bravo Automated Liquid Handling Platform. First, the 96-well HiBiT DNA arrays were diluted 25-fold in Opti-MEM (without serum or phenol red) to a final concentration of 0.0004 μg/μL and 20 μL of the diluted DNAs were transferred into new 96-well plates. Next, promoterless carrier DNA (1 μg/μL) was diluted 25-fold (0.04 μg/μL) and then dispensed into the diluted arrays at 20 μL/well. Following brief mixing, Viafect transfection reagent (Promega) diluted 16-fold into Opti-MEM was dispensed into the plates at 40 μL/well. After mixing by pipetting, plates were incubated for 10 min on the pipetting station deck. The DNA-transfection reagent complexes were then added to plates containing cells. To facilitate the screen, 10 μL of DNA-transfection reagent complexes were added in duplicates to the top 4 and bottom 4 rows, resulting in two identical 48-well arrays per plate. Plates with transfected cells were incubated for 18–20 h at 37 °C/5% CO2. A screen of each tracer across the entire library using two different concentrations requires duplicate plates of transfected cells. Depending on the number of tracers being screened, transfections can be scaled up using the same ratios. The next day, for each tracer, four 20× screening solutions in tracer dilution buffer (Promega) were prepared: two duplicates at final concentration of 20 μM and two duplicates at a final concentration of 2 μM. A competing unmodified compound was added to one of each duplicate at a final concentration of 400 μM. The four resulting solutions were diluted 4-fold in Opti-MEM without serum or phenol red to generate 5× solutions (5 µM and 0.5 µM tracer +/− 100 μM competing compound). To screen the library, a BioTek MultiFlo FX liquid dispenser was used to dispense 22.5 µL of tracer solution to the top 4 rows and 22.5 µL tracer + competing compound solution to the 4 bottom rows. Plates were briefly mixed on an orbital shaker and incubated for 1.5 h at room temperature. […]

| SMILES | NanoBRET Fold Response (GALR2, tracer 0.1μM) | NanoBRET Fold Response (GALR2, tracer 1μM) | further results |
| --- | --- | --- | --- |
| Cc1nc2n(c(=O)c1CCN1CCC(c3noc4cc(F)ccc34)CC1)CCCC2OC(=O)NCCOCCOCCOCCOCCNC(=O)CCc1ccc2n1[B-](F)(F)[N+]1=C(c3ccc[nH]3)C=CC1=C2 (stereo not shown) [Risperidone-2-NB590] | 1.03 | 0.97 |  |
| CCOC(=O)c1cc(C#N)c(N2CCC(C(=O)NS(=O)(=O)Cc3ccccc3/C=C/C(=O)NCCNC(=O)CCc3ccc4n3[B-](F)(F)[N+]3=C(c5ccc[nH]5)C=CC3=C4)CC2)nc1C [AZD1283-1-NB590] |  |  | NanoBRET Fold Response (GALR2, 0.1μM): 1.09; NanoBRET Fold Response (GALR2, 1μM): 1.04 |
| Cc1cc2c(s1)Nc1ccccc1N=C2N1CCN(CCCNC(=O)CCOCCOCCOCCOCCNC(=O)CCc2ccc3n2[B-](F)(F)[N+]2=C(c4ccc[nH]4)C=CC2=C3)CC1 [Olanzapine-a-2-NB590] | 0.96 | 1.07 |  |
| COc1ccccc1N1CCN(CCCCN2C(=O)c3ccc(CNC(=O)CCOCCNC(=O)c4ccc(CNC(=O)CCc5ccc6n5[B-](F)(F)[N+]5=C(c7ccc[nH]7)C=CC5=C6)cc4)cc3C2=O)CC1 [NAN-190-3-NB590] | 1.03 | 1.00 |  |
| CC(C)N(CC[C@H](c1ccccc1)c1cc(CCNC(=O)CCOCCOCCOCCOCCNC(=O)CCc2ccc3n2[B-](F)(F)[N+]2=C(c4ccc[nH]4)C=CC2=C3)ccc1O)C(C)C [Tolterodine-2-NB590] | 0.97 | 1.09 |  |
| CN(C)CCC=C1c2ccccc2CCc2ccc(C(=O)NCCNC(=O)CCOCCOCCOCCOCCNC(=O)CCc3ccc4n3[B-](F)(F)[N+]3=C(c5ccc[nH]5)C=CC3=C4)cc21 [Amitriptyline-b-2-NB590] |  |  | NanoBRET Fold Response (tracer at 0.1μM, listed as amitriptyline-b-2-NB590): 1.10; NanoBRET Fold Response (tracer at 1μM, listed as amitriptyline-b-2-NB590): 1.11 |
| O=C(CCOCCOCCOCCOCCNC(=O)CCc1ccc2n1[B-](F)(F)[N+]1=C(c3ccc[nH]3)C=CC1=C2)NCCCN1CCN(C2=Nc3ccccc3Oc3ccc(Cl)cc32)CC1 [Loxapine-a-2-NB590] | 1.09 | 1.12 |  |
| CN(C)CCC=C1c2ccccc2CCc2ccc(C(=O)NCCNC(=O)CCOCCOCCOCCOCCNC(=O)CCc3ccc4n3[B-](F)(F)[N+]3=C(c5ccc[nH]5)C=CC3=C4)cc21 [Amitriptyline-a-2-NB590] |  |  | NanoBRET Fold Response (tracer at 0.1μM): 1.02; NanoBRET Fold Response (tracer at 1μM): 0.99 |
| O=C(CCc1ccc2n1[B-](F)(F)[N+]1=C(c3ccc[nH]3)C=CC1=C2)NCCOCCOCCNC(=O)OCCOCCN1CCN(C2=Nc3ccccc3Sc3ccccc32)CC1 [Quetiapine-a-2-NB590] | 1.01 | 0.83 |  |
| COc1ccccc1N1CCN(CCCCN2C(=O)c3ccc(CNC(=O)CCOCCOCCOCCOCCNC(=O)CCc4ccc5n4[B-](F)(F)[N+]4=C(c6ccc[nH]6)C=CC4=C5)cc3C2=O)CC1 [NAN-190-2-NB590] | 1.00 | 0.99 |  |
| CN1CCN(C2=Nc3cc(Cl)ccc3N(CC(=O)NCCOCCOCCOCCOCCNC(=O)CCc3ccc4n3[B-](F)(F)[N+]3=C(c5ccc[nH]5)C=CC3=C4)c3ccccc32)CC1 [Clozapine-c-2-NB590] |  |  | NanoBRET Fold Response (GALR2, 0.1μM tracer): 1.00; NanoBRET Fold Response (GALR2, 1μM tracer): 1.05 |
| COc1ccc2[nH]c(-c3ccc(CNC(=O)CCOCCOCCOCCOCCNC(=O)CCc4ccc5n4[B-](F)(F)[N+]4=C(c6ccc[nH]6)C=CC4=C5)cc3)c(CCNC(C)=O)c2n1 [AzomelatoninICO9-2-NB590] |  |  | NanoBRET Fold Response (0.1μM tracer): 0.92; NanoBRET Fold Response (1μM tracer): 1.01 |
| O=C(CCOCCOCCOCCOCCNC(=O)CCc1ccc2n1[B-](F)(F)[N+]1=C(c3ccc[nH]3)C=CC1=C2)NCCCN1CCN(C2=Nc3cc(Cl)ccc3Nc3ccccc32)CC1 [Clozapine-a-2-NB590] |  |  | NanoBRET Fold Response (GALR2, 0.1μM tracer): 1.09; NanoBRET Fold Response (GALR2, 1μM tracer): 1.19 |
| CCCn1c(=O)c2[nH]c(-c3ccc(OCC(=O)NCCNC(=O)CCOCCNC(=O)c4ccc(CNC(=O)CCc5ccc6n5[B-](F)(F)[N+]5=C(c7ccc[nH]7)C=CC5=C6)cc4)cc3)nc2n(CCC)c1=O [XAC-3-NB590] | 1.07 | 0.96 |  |
| O=C(CCc1ccc2n1[B-](F)(F)[N+]1=C(c3ccc[nH]3)C=CC1=C2)NCc1ccc(C(=O)NCCOCCOCCNCC(O)COc2cccc3ccccc23)cc1 (stereo not shown) [Propranolol-3-NB590] |  |  | NanoBRET Fold Response (GALR2, 0.1μM): 1.00; NanoBRET Fold Response (GALR2, 1μM): 0.99 |
| O=C(CCc1ccc2n1[B-](F)(F)[N+]1=C(c3ccc[nH]3)C=CC1=C2)NCc1ccc(C(=O)NCCOCCC(=O)N[C@@H]2CC[C@@]3(O)[C@H]4Cc5ccc(O)c6c5[C@@]3(CCN4CC3CC3)[C@H]2O6)cc1 [Naltrexone-3-NB590] | 1.00 | 0.98 |  |
| N#CN=C(NCCCOc1cccc(CN2CCCCC2)c1)NCCNC(=O)CCOCCOCCOCCOCCNC(=O)CCc1ccc2n1[B-](F)(F)[N+]1=C(c3ccc[nH]3)C=CC1=C2 [Aminopotentidine-2-NB590] | 0.94 | 0.99 |  |
| COc1ccc2c(n1)c(CCNC(C)=O)cn2CCNC(=O)CCc1ccc2n1[B-](F)(F)[N+]1=C(c3ccc[nH]3)C=CC1=C2 [Azamelatonin-1-NB590] |  |  | NanoBRET Fold Response (0.1μM tracer): 0.91; NanoBRET Fold Response (1μM tracer): 1.23 |
| CC(C)N(CC[C@H](c1ccccc1)c1cc(CCNC(=O)c2ccc(CNC(=O)CCc3ccc4n3[B-](F)(F)[N+]3=C(c5ccc[nH]5)C=CC3=C4)cc2)ccc1O)C(C)C [Tolterodine-BZ-NB590] | 0.99 | 1.08 |  |
| CN1CCN(C2=Nc3cc(Cl)ccc3Nc3ccc(CNC(=O)CCOCCOCCOCCOCCNC(=O)CCc4ccc5n4[B-](F)(F)[N+]4=C(c6ccc[nH]6)C=CC4=C5)cc32)CC1 [Clozapine-b-2-NB590] |  |  | NanoBRET Fold Response (GALR2, 0.1μM tracer): 0.93; NanoBRET Fold Response (GALR2, 1μM tracer): 0.99 |
